Assay results from patent US6255347A (priority 1997, dated 2001).

How the values were obtained:
risk of AD = settings: in vivo; cited from earlier work
[1] = system: APPs secretion by NIH 3T3 cell lines; settings: 50 μM
[2] = cited from earlier work
[3] = cited from earlier work; remark: listed apart in the source
animal tumors = settings: in vivo; cited from earlier work
APP = settings: via activation of PKC; cited from earlier work

Compound: CC(=O)Oc1ccccc1C(=O)O [Aspirin]
- association with decreased risk of AD (risk of AD): not associated
- APPs secretion (in words) ([1]; 20 h): failed to show an increased secretion of APPs
- Density of APPs band ([1]; 20 h culture, n = 2, mean ± S.D.): 2.92 ± 0.43

Compound: O=NN(CCCl)C(=O)NCCCl [Carmustine, 1,3-bis (2-chloroethyl)-1-nitrosourea]
- solubility (in words) ([2]; solvent): highly soluble in alcohol and lipids, and poorly soluble in water

Compound: O=NN(CCCl)C(=O)NC1CCCCC1 [Lomustine, 1-(2-chloro-ethyl)-3-cyclohexyl-1 nitrosourea]
- ionization ([2]; physiological pH): relatively unionized at a physiological pH
- tissue levels compared to plasma levels ([3]; 15 minutes after intravenous administration): comparable to plasma levels
- radioactivity excreted as degradation products ([3]; oral 30 mg/m^2 to 100 mg/m^2, within 24 hours): about half

Compound: CC(=O)Nc1ccc(O)cc1 [acetaminophen]
- association with decreased risk of AD (risk of AD): not associated

Compound: N[C@H](Cc1ccc(N(CCCl)CCCl)cc1)C(=O)O [medphalan]
- activity against certain animal tumors versus melphalan (animal tumors): less active

Compound: CCCCCCCCCCCCCC(=O)O[C@@H]1[C@@H](C)[C@@]2(O)[C@@H](C=C(CO)C[C@]3(O)C(=O)C(C)=C[C@@H]23)[C@@H]2C(C)(C)[C@]12OC(C)=O [phorbol ester]
- formation of APPs (APP): increase the formation of APPs
- production of amyloidogenic fragments containing Aβ and Aβ (APP): reduce the production
